Here are results for 122 compounds from a melting point compilation (Tetko et al.).

Each structure is given as a SMILES string.

Regarding `COC(=O)c1ccc(-c2nn[nH]n2)cc1`, the melting point was in the range of 230 to 232 °C.
For `CCOc1cc(C#N)ccc1O` the value was 75 to 77 °C; for `CC(C)(C)C(N)=S`, 114 to 116 °C.
For `COC(=O)c1cc(Cl)c(N)cc1OC` the value was 124 to 126 °C.
The compound `c1ccc2sc(C3CCNCC3)nc2c1` yielded a melting point of 127 to 129 °C.
Under `CCOC(=O)c1sc2nc(Cc3ccccn3)[nH]c(=O)c2c1C` stands 231 to 233 °C; under `COc1ccc(I)cc1F`, 32 to 34 °C; under `CC(C)C(NCC(F)(F)F)C(=O)O` (configuration not stated), 128 to 130 °C.
In the case of `CCC(C(=O)Nc1cccc(C(N)=S)c1)c1ccccc1` (configuration not stated), the melting point fell in the range of 148 to 150 °C.
For `CCC1(c2ccccc2)NC(=O)NC1=O` (configuration not stated) the value was 203 to 205 °C; for `O=CC1=C(Sc2ccccc2)CCCC1`, 42 to 44 °C.
For `Clc1ccc2c(c1)NCCCS2` the value was 51 to 53 °C; for `O=C1CCc2cc(C(=O)O)ccc2N1`, 261 to 263 °C.
For `Fc1ccc(CNc2nc3ccccc3s2)cc1` the value was 155 to 157 °C.
Turning to `OCc1ccc(F)c2cccnc12`, the melting point was 131 to 133 °C.
Under `Cn1cnc(S(=O)(=O)NCC(=O)O)c1` stands 211 to 213 °C; under `OCc1ccc(O)c(F)c1`, 81 to 83 °C.
For `O=C(O)CNC(=O)NCc1ccc(F)cc1` the value was 169 to 171 °C; for `OC(c1ccccc1)c1nc2cc(Cl)ccc2[nH]1` (configuration not stated), 184 to 186 °C.
Under `Nc1nc(-c2ccc(Cl)cc2)n[nH]1` stands 219 to 221 °C; under `CSc1nc(C)cc(C(=O)O)n1`, 152 to 154 °C.
`Cc1cc(C(C)(C)C)cc(C)c1S(=O)(=O)Cl` came in with a melting point of 113 to 115 °C.
Under `CC1(C)CCc2c(sc(N)c2C(N)=O)C1` stands 144 to 146 °C; under `CN(C)C(=O)c1ccc(Cl)c(S(=O)(=O)Cl)c1`, 106 to 108 °C; under `O=C(O)c1ccc(Oc2ccc(F)cc2)cc1`, 170 to 174 °C.
For `COc1ccc(F)cc1[N+](=O)[O-]` the value was 62 to 64 °C.
For `O=C(O)c1cc(Br)c2c(c1)OCO2` the value was 251 to 253 °C; for `NC(COc1ccc(Cl)cc1Cl)=NO`, 141 to 144 °C; for `CCOc1ccccc1-c1cc(C(=O)O)n[nH]1`, 224 to 226 °C.
For the compound `Nc1c[nH]nc1-c1ccccc1`, the melting point lay in the range of 147 to 149 °C.
In turn, `CCOC(=O)CN(C)c1ccncc1[N+](=O)[O-]` displayed a melting point of 82 to 84 °C.
Compound `COC(=O)c1cc2ccccn2c1` gave a melting point of 94 to 96 °C.
Under `CC(C)c1cnc(-c2ccc([N+](=O)[O-])cc2)o1` stands 103 to 105 °C.
In turn, `CC(C)(C)NC(=O)c1ccc(C(=O)O)cc1` yielded a melting point of 217 to 219 °C.
Under `CNc1ccncc1[N+](=O)[O-]` stands 157 to 159 °C; under `O=C1NC(=O)C2(CCOc3ccccc32)N1` (configuration not stated), 120 to 122 °C.
Take `O=C1c2ccccc2C(=O)N1CC(O)CN1C(=O)c2ccccc2C1=O`: the melting point lay in the range of 206 to 208 °C.
The compound `O=S1(=O)CCC2(CC1)CO2` yielded a melting point of 168 to 170 °C.
Compound `Nc1nc2c(s1)CCc1ccccc1-2` had a melting point of 58 to 66 °C.
For `CC1CCCN1C(=O)c1ccc(C#N)cc1` (configuration not stated) the value was 87 to 89 °C.
Under `COC(=O)CCNc1ncccc1[N+](=O)[O-]` stands 65 to 67 °C.
Under `Cc1ccc(-n2nc(-c3ccccc3)cc2N)c(C)c1` stands 126 to 128 °C.
As for `N#Cc1cnn(-c2ccc(C(=O)O)cc2)c1N`, the melting point is 289 to 291 °C.
For `CN(C)c1c(N)n(C)c(=O)[nH]c1=O` the value was 161 to 163 °C.
In the case of `COC(=O)c1cc(OC)ccn1`, the melting point fell in the range of 43 to 45 °C.
Under `O=C1NCCNC1c1ccc(C(F)(F)F)cc1` (configuration not stated) stands 141 to 143 °C; under `Cn1c(S)nnc1-c1ccc(Cl)cc1`, 113 to 115 °C; under `Cc1cc(Br)ncc1N`, 54 to 56 °C.
For `NC(=O)Nc1cccc(C(=O)O)c1`, the melting point is 269 to 271 °C.
For `O=C(O)CS(=O)(=O)Cc1ccc(Br)cc1` the value was 156 to 158 °C.
Compound `Cc1nc2c(cnn2-c2ccc(F)cc2)c(=O)[nH]1` had a melting point of 329 to 331 °C.
Under `CC(C)(C(=O)O)c1ccc(Cl)c(Cl)c1` stands 94 to 96 °C; under `N#Cc1ccc(Oc2cccc(Cl)c2Cl)nc1`, 143 to 145 °C.
Under `CC(C)CSc1ccc([N+](=O)[O-])cc1C(=O)O` stands 189 to 191 °C.
Under `OC1CC(c2ccc(Br)cc2)C1` (configuration not stated) stands 59 to 61 °C; under `Cc1ccc(-n2nc(C)c(C(=O)O)c2Cl)cc1Cl`, 241 to 243 °C.
In the case of `Clc1ccc(-c2cc3ncnc(Cl)c3s2)cc1`, the melting point lay in the range of 188 to 190 °C.
For `Cc1nc(O)nc(C)c1CC(=O)O` the value was 271 to 273 °C.
Under `O=C(O)CCCOc1cccc(F)c1` stands 51 to 53 °C.
For `O=C(O)CCC(=O)N1CC(=O)Nc2ccccc21` the value was 181 to 183 °C; for `O=C(O)C1CCN(c2ccc(Br)cn2)CC1`, 213 to 215 °C.
In the case of `O=S(=O)(Cl)c1ccc(OCC2CCCCO2)cc1` (configuration not stated), the melting point was in the range of 64 to 66 °C.
Under `O=C(O)Cn1c(COc2ccccc2)nc2ccccc21` stands 199 to 201 °C; under `O=C(c1ccc(F)cc1)c1cnc2ccccc2c1`, 89 to 91 °C; under `Cc1cccc(C(=O)Nc2cccc(O)c2)n1`, 177 to 179 °C.
Under `NC1CCN(C(=O)C2CCCCC2)C1` (configuration not stated) stands 72 to 74 °C; under `CC(C)(C)OC(=O)NC1(CN)CCCCCC1`, 77 to 79 °C; under `O=C(O)Cc1cc2ccccc2o1`, 89 to 91 °C.
In turn, `Oc1cccc(-c2cn[nH]c2)c1` gave a melting point of 218 to 220 °C.
Regarding `O=C1CNc2ccc(Br)cc2N1`, the melting point is 169 to 171 °C.
For `Cc1nc2ccccc2n1C(C(=O)O)C(C)C` (configuration not stated) the value was 119 to 121 °C.
Compound `Clc1cc(Cl)nc(C2CC2)n1` yielded a melting point of 39 to 41 °C.
For `Cn1c(N)nnc1S` the value was 278 to 280 °C; for `COc1cc(C(=O)O)c(F)cc1N`, 189 to 191 °C.
For `Nc1ccccc1-c1nc(C2CC2)n[nH]1`, the melting point lay within 213 to 215 °C.
Under `O=C(O)C=Cc1ccc2ccccc2n1` stands 169 to 171 °C.
Take `Cc1ccc2cccnc2c1S(=O)(=O)Cl`: the melting point fell in the range of 149 to 151 °C.
For the compound `CCCOc1ccc2c(c1)OCC(C=O)=C2`, the melting point fell in the range of 55 to 57 °C.
For `CC(C)C(Br)C(=O)NC1CCCCC1` (configuration not stated) the value was 116 to 118 °C.
For `COc1ccc(OC)c(NC(=O)C(C)Cl)c1` (configuration not stated) the value was 56 to 58 °C; for `Cc1ccc(C)c(C(=O)CCl)c1`, 28 to 30 °C.
Under `NCc1cnn(-c2ccc(F)cc2F)c1` stands 49 to 51 °C; under `CC(C(=O)O)C1CCOCC1` (configuration not stated), 39 to 41 °C.
For `CC(NC(=O)OC(C)(C)C)C(O)Cc1ccccc1` (configuration not stated), the melting point was in the range of 116 to 118 °C.
Compound `O=C(O)CCc1n[nH]c(S)nc1=O` displayed a melting point of 162 to 164 °C.
Under `Cc1ccc(C(=O)Nc2nc3ccc(N)cc3s2)s1` stands 250 to 252 °C.
Under `Cc1nc(-c2cccc(N)c2)n[nH]1` stands 56 to 58 °C; under `COC(=O)CCSc1ccc([N+](=O)[O-])cc1C(=O)O`, 165 to 167 °C; under `NCC(=O)Nc1ccccc1[N+](=O)[O-]`, 81 to 83 °C.
For `CC(CC(=O)O)C(=O)c1ccc(Cl)cc1` (configuration not stated) the value was 73 to 75 °C; for `O=C(O)C1CCCN1C(=O)c1ccco1` (configuration not stated), 185 to 187 °C.
`Cc1nnc(C2Cc3ccccc3CN2)o1` (configuration not stated) gave a melting point of 65 to 67 °C.
For `O=C(O)Cc1cc2ccccc2[nH]c1=O` the value was 278 to 280 °C.
For `CC(C(=O)O)c1ccc(Cl)c(Cl)c1` (configuration not stated) the value was 39 to 41 °C.
Under `Cc1cc(C)cc(OCCC(=O)O)c1` stands 88 to 90 °C; under `Cc1ccc(N)cc1OCC1CCOCC1`, 114 to 116 °C.
In the case of `CC(C)(C)c1ccc(C(=O)N=C=S)cc1`, the melting point was 33 to 35 °C.
Under `O=C(O)c1cccc(CN2CCCC2=O)c1` stands 145 to 155 °C; under `CCc1c(C(C)=O)oc2ccccc12`, 33 to 35 °C; under `CS(=O)(=O)c1ccc(C#N)cc1F`, 146 to 148 °C.
`ClCc1cc(Cl)cc2c1OCC2`: the melting point was 46 to 48 °C.
`CC(C)C1=NN(C)C(=O)C1`: the melting point lay within 110 to 112 °C.
Under `O=C(CCl)c1ccc(NC(=O)c2ccccc2)cc1` stands 140 to 142 °C; under `O=C(O)C1CC2CCCCC2N1C(=O)c1ccc(F)cc1F` (configuration not stated), 189 to 191 °C; under `O=S(=O)(O)c1nc2ccccc2[nH]1`, 116 to 119 °C.
Under `CCOC(=O)c1sc(NCCCC(=O)O)nc1-c1ccccc1` stands 120 to 122 °C; under `Cc1ccc(C(=O)C(=O)c2ccccc2)cc1C`, 63 to 65 °C; under `CC(C)(C)n1cc(C(=O)O)c(Br)n1`, 163 to 165 °C.
Under `O=[N+]([O-])c1ccc(NC2CCOc3ccccc32)cc1` (configuration not stated) stands 124 to 126 °C.
The compound `O=C(O)C(O)C1CC1` (configuration not stated) came in with a melting point of 66 to 68 °C.
For `COC(=O)C(Cc1c[nH]cn1)NC(=O)CCc1ccccc1` (configuration not stated) the value was 152 to 154 °C.
For `Nc1cccc(OCc2ccc(F)cc2)c1` the value was 87 to 89 °C.
`CC(=O)Nc1ccc(Br)cc1N`: the melting point was in the range of 155 to 157 °C.
In turn, `O=Cc1ccc(N2CCCCC2)s1` displayed a melting point of 73 to 75 °C.
For `CC1=C(C#N)CCC(=O)N1`, the melting point lay in the range of 201 to 203 °C.
Under `Clc1cc(Cl)cc(-c2noc(Cl)n2)c1` stands 67 to 69 °C.
`CCNc1nc(C)c(C(=O)O)s1`: the melting point lay within 171 to 173 °C.
As for `O=C1NCCCc2sccc21`, the melting point is 89 to 91 °C.
For `N#CC(O)c1ccc([N+](=O)[O-])cc1` (configuration not stated) the value was 109 to 111 °C; for `O=C(O)c1sccc1S(=O)(=O)N1CCOCC1`, 189 to 191 °C.
For `O=C(O)C#Cc1ccc(F)cc1F` the value was 170 to 172 °C; for `Cc1nn(C)c2nc(Cl)c(C=O)cc12`, 182 to 184 °C.

One may read the melting point as the temperature of the solid-liquid transition.
